Measured values: ChEMBL document CHEMBL1141059, “3-(2-Aminoethyl)pyridine analogs as alpha4beta2 nicotinic cholinergic receptor ligands” (Bioorg Med Chem Lett, 2005)

Target: Neuronal acetylcholine receptor; alpha4/beta2 (Rattus norvegicus, UniProt P09483+P12390)
Test: Binding affinity for rat brain Nicotinic acetylcholine receptor alpha4-beta2 using [3H]S-(-)-nicotine

Sequence of Neuronal acetylcholine receptor; alpha4/beta2 (P09483 whole entry): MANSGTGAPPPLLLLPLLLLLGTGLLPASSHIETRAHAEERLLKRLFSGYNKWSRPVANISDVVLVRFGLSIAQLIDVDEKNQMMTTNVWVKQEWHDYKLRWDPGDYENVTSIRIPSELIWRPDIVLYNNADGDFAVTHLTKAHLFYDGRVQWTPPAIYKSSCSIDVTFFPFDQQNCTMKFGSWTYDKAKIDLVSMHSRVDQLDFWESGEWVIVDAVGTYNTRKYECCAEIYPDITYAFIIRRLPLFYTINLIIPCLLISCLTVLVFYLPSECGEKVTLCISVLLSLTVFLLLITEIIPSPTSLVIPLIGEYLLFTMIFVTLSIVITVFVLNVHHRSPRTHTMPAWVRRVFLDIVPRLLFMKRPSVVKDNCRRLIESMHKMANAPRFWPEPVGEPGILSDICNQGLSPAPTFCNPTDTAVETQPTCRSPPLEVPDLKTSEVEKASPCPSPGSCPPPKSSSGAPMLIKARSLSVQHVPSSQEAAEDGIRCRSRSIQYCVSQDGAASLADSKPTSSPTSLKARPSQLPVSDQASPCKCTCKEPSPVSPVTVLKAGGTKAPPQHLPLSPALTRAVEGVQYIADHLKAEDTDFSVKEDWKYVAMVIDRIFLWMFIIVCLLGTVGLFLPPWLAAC
Sequence of Neuronal acetylcholine receptor; alpha4/beta2 (P12390 whole entry): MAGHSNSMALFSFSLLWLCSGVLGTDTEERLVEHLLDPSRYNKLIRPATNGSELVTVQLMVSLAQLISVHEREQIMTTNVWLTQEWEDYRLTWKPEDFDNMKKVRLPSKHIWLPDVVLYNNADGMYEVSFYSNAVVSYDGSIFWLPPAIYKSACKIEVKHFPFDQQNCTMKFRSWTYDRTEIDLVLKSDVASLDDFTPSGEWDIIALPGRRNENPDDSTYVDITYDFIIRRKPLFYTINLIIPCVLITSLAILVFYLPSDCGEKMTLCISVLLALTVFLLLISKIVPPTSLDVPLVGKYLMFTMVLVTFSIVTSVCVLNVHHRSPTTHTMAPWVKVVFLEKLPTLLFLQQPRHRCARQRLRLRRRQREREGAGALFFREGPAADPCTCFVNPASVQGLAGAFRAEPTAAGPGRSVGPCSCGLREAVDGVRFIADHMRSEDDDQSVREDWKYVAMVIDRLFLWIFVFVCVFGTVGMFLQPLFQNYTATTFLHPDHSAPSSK

Point of comparison: CCN(C)CCc1ccc(Cl)nc1, Ki 70 nM. Against it:
- CCN(C)CCc1cncc(Cl)c1 — 4.4-fold higher, 310 nM
- CCN(C)CCc1cncc(C)c1 — 5.3-fold higher, 370 nM
- CCN(C)CCc1ccc(CCc2ccc(OC)cc2)nc1 — higher, > 10000 nM
- CCN(C)CCc1cnccc1OC — 26-fold higher, 1840 nM
- CCN(C)CCc1ccc(Br)nc1 — within 1.5-fold, 83 nM
- CCN(C)CCc1ccc(C)nc1 — 3.4-fold higher, 240 nM
- CCN(C)CCc1ccc(CCc2ccc(Cl)cc2)nc1 — higher, > 10000 nM
- CCN(C)CCc1cncc(Br)c1 — 5.1-fold higher, 360 nM
- CCN(C)CCc1cncc(OC)c1 — 3.7-fold lower, 19 nM
- CCN(C)CCc1cnccc1N — higher, > 10000 nM
